This is an account of results in patent US20220370381A1 (priority 2016, published 2022).

The term Ki denotes the equilibrium dissociation constant of an inhibitor or competing ligand from its target. Usually IC50 stands for the concentration at which inhibition is half-maximal.

SMILES strings stand for the structures. Residue numbers refer to the chain shown, from its start. Read-outs that look alike come from different tables or passages of the source.

For assay [1], the system named is rats. The conditions noted are these: cited from earlier work.
The test system of assay [2] is Swiss OF-1 mice. As to conditions: female BKTO mice, O'Neill & Conway (2001); cited from earlier work.
For assay [3], the system named is Swiss OF-1 mice. The assay is described as follows: Forced swim test (FST) in mice. The conditions noted are these: acute IP injection, lower doses not active.
In assay [4] the test system is DBA/1 mice. The conditions noted are these: comparator value, no test described; cited from earlier work.
For assay [5], the target named is T1, Human muscarinic M1 receptor (Homo sapiens, UniProt P11229).
T1 construct: expressed in transfected cells; host or cells: CHO
T1 sequence (P11229 1-460): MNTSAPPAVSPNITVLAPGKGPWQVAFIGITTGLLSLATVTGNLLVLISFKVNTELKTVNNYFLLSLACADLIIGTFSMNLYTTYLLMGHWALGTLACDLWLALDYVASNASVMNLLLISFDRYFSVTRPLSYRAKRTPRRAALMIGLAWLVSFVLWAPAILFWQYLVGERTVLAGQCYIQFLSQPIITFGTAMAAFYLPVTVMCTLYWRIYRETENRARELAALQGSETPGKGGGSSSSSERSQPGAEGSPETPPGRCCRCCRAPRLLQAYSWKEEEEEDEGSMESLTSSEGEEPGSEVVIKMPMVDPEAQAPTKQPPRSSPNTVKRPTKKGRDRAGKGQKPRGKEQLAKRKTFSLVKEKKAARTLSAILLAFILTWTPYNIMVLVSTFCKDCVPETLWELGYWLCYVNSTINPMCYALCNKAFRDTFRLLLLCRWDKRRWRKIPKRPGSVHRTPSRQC
It counts as cell-based. The conditions noted are these: acetylcholine-induced Ca2+ mobilization, CHO cells.
Protocol: After plating, a fluorescent probe (Fluo4 NW, Invitrogen), mixed with probenicid in HBSS buffer (Invitrogen) complemented with 20 mM Hepes (Invitrogen) (pH 7.4), was added into each well and equilibrated with the cells for 60 min at 37° C., followed by a second incubation for 15 min at 22° C.
Thereafter, the assay plates were positioned in a microplate reader (CellLux, PerkinElmer). After a 5-min incubation, 3 nM acetylcholine was added to all except the basal control wells to a total reaction volume of 100 uL, and changes in fluorescence intensity which vary proportionally to the free cytosolic Ca2+ ion concentration, were measured.
The stock solutions were then diluted to [10×] in HBSS and 0.1% BSA just prior to use. Maximum tolerable DMSO concentration was 0.3%.

For assay [6], the target named is T2, serotonin 5-HT1A (Rattus norvegicus, UniProt P19327).
T2 construct: serotonin 5-HT1A (rat cerebral cortex); from tissue; host or cells: rat cerebral cortex
T2 sequence (P19327 1-422): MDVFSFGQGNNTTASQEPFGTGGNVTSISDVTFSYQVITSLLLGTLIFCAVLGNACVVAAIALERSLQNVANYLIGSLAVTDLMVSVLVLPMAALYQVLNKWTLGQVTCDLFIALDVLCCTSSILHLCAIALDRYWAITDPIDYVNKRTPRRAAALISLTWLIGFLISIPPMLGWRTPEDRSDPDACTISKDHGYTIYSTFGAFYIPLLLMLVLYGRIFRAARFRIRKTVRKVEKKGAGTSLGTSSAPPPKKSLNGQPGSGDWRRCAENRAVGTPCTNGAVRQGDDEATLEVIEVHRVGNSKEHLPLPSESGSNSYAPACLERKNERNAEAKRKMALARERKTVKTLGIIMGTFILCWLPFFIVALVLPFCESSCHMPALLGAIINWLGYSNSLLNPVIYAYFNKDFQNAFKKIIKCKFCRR
The assay is described as follows: Competitive radioligand binding assay, serotonin 5-HT1A.

Assay [7] concerns the target T3, Sigma 1 (Cavia porcellus, UniProt Q60492). The assay is described as follows: Sigma-1 receptor tissue bioassay, guinea pig vas deferens, agonist activity (twitch contraction). Also noted: Segments of guinea pig vas deferens were suspended in 20-ml organ baths; from tissue; host or cells: guinea pig vas deferens. As to conditions: field-stimulated guinea pig vas deferens, compound alone.

Assay [8] deals with T4, human β-2 adrenergic receptor (Homo sapiens, UniProt P07550). The assay is described as follows: β-2 adrenergic receptor antagonist assay, agonist-induced cAMP production (HTRF). It counts as cell-based. Also noted: expressed in transfected cells; host or cells: HEK-293. As to conditions: inhibition of isoproterenol-induced cAMP production. The protocol:
Transfected HEK-293 cells expressing human β-1 adrenergic receptor, human β-2 adrenergic receptor, and human β3 adrenergic receptor, respectively, were prepared using cloned human cDNA. See H FRIELLE, T., COLLINS, S., DANIEL, K. W., CARON, M. G., LEFKOWITZ, R. J., KOBILKA, B. K. (1987), Cloning of the cDNA for the human beta1-adrenergic receptor, Proc. Natl. Acad. Sci. U.S.A., 84,7920, and BAKER, J. G. (2005) The selectivity of Beta-adrenoreceptor antagonists at the human Beta1, Beta2 and Beta3 adrenoreceptor, Brit.
Transfected cells were suspended in HBSS buffer (Invitrogen) complemented with 20 mM HEPES (pH 7.4) and 500 μM IBMX. […] The cells were then distributed in 96 well microplates (see FIG. 15 for plating densities).
After plating, the cells were induced by adding reference agonist. See FIG. 15 for reference agonists and concentrations used for each assay. […] The cells were then incubated 30 minutes at room temperature.
Subsequently, the cells were lysed and a fluorescence acceptor (D2-labeled cAMP) and a fluorescence donor (anti-cAMP antibody labeled with europium cryptate) were added to the wells.
Standard reference antagonists were tested in each experiment at several concentrations to generate a concentration-response curve from which its IC50 value is calculated.
EC50 values (concentration producing a half-maximal response) and IC50 values (concentration causing a half-maximal inhibition of the control agonist response) were determined by non-linear regression analysis of the concentration-response curves generated with mean replicate values using Hill equation curve fitting: […]
For the antagonists, the apparent dissociation constants (KB) were calculated using the modified Cheng Prusoff equation:
KB=IC50/[1+(A/EC50A)], where
(In general: Cyclic AMP is a second messenger, typically raised through Gs and lowered through Gi signalling.)

The target in assay [9] is Serotonin 5-HT2B (Human recombinant) (Homo sapiens, UniProt P41595). The assay is described as follows: Competitive radioligand binding assay, serotonin 5-HT2B.
In assay [10] the test system is T5, β-Adrenergic (Non-selective).
T5 construct: β-1 adrenergic; other: test article 1×10^−6 and 1×10^−5 mol/L; rat brain
The experiment in a line: Competitive radioligand binding assay, β-adrenergic (non-selective). Also noted: species or system Rat.

Assay [11] has as its system T6, Na channel.
T6 construct: other: test article 1×10^−6 and 1×10^−5 mol/L; rat brain
The experiment in a line: Competitive radioligand binding assay, Na channel. Also on record: species or system Rat.

Assay [12] has as its target T7, Muscarinic M1 (Rattus norvegicus, UniProt P08482).
T7 construct: Muscarinic M1 (Rat cerebral cortex); from tissue; host or cells: rat cerebral cortex
T7 sequence (P08482 1-460): T1 sequence (P11229 1-460) with A5V, T254S, P309S, R320K, A337G, I413V
The experiment in a line: Competitive radioligand binding assay, muscarinic M1.

For assay [13], the system named is Sigma non-selective. The experiment in a line: Competitive radioligand binding assay, sigma non-selective. Also noted: species or system Guinea pig.
The target of assay [14] is T3, Sigma 1. The experiment in a line: Sigma-1 receptor tissue bioassay, guinea pig vas deferens, antagonist activity ((+)SKF-10047-induced response). Also on record: Segments of guinea pig vas deferens were suspended in 20-ml organ baths; from tissue; host or cells: guinea pig vas deferens. The conditions noted are these: field-stimulated guinea pig vas deferens, (+)SKF-10047 100 μM.

Assay [15] concerns the target hNav1.5 (Homo sapiens, UniProt Q14524). The assay is described as follows: Ion channel profiling, IonFlux HT automated patch clamp, hNav1.5.
For assay [16], the target named is T4, human β-2 adrenergic receptor. The experiment in a line: Competitive radioligand binding assay, β2-adrenergic.
Assay [17] relates to Swiss OF-1 mice. The experiment in a line: Spontaneous alternation in the Y-maze, dizocilpine-induced deficit. In kind it is in vivo, mouse. As to conditions: IP; 0.1 mg/kg not active.
Assay [18] concerns Swiss OF-1 mice. The assay is described as follows: Step-through passive avoidance, dizocilpine-induced deficit. It counts as in vivo, mouse. As to conditions: IP; 0.1 mg/kg not active.
Assay [19] has as its target Serotonin 5-HT7 (Human recombinant) (Homo sapiens, UniProt P34969). The experiment in a line: Competitive radioligand binding assay, serotonin 5-HT7.
Assay [20] has as its target T3, Sigma 1. The experiment in a line: Competitive radioligand binding assay, Sigma 1. Also noted: species or system Guinea pig.
Setting [21] is: Example 3, Ki=IC50/(1+L/Kd), IC50 expressed in mol/L, read-out: Ki, 5-HT1A.
Setting [22] is: test article 1×10^−6 and 1×10^−5 mol/L, rat brain.
Where [23] appears, read: Example 2, seven concentrations.
The mark [24] stands for this setting: test article 1×10^−6 and 1×10^−5 mol/L, rat cerebral cortex.

T4 sequence (P07550 whole entry): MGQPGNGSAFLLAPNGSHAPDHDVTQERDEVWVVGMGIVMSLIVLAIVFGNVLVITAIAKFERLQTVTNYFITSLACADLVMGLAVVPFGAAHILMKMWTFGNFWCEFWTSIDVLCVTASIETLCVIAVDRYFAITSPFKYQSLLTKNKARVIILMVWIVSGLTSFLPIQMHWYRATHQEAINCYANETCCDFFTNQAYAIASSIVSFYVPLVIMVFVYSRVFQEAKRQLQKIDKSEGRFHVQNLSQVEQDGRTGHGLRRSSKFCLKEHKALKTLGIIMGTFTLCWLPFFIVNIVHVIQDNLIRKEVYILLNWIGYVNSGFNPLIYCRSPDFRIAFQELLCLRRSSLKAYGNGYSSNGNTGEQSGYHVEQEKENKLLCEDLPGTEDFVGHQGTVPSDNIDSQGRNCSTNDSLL
T3 sequence (Q60492 whole entry): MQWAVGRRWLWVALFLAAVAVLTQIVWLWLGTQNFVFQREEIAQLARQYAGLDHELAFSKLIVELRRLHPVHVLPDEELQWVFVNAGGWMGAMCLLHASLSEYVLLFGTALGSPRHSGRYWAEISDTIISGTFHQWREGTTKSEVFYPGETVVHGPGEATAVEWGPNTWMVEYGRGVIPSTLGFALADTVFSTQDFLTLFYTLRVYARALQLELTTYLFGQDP
Chain of hNav1.5 (Q14524 whole entry): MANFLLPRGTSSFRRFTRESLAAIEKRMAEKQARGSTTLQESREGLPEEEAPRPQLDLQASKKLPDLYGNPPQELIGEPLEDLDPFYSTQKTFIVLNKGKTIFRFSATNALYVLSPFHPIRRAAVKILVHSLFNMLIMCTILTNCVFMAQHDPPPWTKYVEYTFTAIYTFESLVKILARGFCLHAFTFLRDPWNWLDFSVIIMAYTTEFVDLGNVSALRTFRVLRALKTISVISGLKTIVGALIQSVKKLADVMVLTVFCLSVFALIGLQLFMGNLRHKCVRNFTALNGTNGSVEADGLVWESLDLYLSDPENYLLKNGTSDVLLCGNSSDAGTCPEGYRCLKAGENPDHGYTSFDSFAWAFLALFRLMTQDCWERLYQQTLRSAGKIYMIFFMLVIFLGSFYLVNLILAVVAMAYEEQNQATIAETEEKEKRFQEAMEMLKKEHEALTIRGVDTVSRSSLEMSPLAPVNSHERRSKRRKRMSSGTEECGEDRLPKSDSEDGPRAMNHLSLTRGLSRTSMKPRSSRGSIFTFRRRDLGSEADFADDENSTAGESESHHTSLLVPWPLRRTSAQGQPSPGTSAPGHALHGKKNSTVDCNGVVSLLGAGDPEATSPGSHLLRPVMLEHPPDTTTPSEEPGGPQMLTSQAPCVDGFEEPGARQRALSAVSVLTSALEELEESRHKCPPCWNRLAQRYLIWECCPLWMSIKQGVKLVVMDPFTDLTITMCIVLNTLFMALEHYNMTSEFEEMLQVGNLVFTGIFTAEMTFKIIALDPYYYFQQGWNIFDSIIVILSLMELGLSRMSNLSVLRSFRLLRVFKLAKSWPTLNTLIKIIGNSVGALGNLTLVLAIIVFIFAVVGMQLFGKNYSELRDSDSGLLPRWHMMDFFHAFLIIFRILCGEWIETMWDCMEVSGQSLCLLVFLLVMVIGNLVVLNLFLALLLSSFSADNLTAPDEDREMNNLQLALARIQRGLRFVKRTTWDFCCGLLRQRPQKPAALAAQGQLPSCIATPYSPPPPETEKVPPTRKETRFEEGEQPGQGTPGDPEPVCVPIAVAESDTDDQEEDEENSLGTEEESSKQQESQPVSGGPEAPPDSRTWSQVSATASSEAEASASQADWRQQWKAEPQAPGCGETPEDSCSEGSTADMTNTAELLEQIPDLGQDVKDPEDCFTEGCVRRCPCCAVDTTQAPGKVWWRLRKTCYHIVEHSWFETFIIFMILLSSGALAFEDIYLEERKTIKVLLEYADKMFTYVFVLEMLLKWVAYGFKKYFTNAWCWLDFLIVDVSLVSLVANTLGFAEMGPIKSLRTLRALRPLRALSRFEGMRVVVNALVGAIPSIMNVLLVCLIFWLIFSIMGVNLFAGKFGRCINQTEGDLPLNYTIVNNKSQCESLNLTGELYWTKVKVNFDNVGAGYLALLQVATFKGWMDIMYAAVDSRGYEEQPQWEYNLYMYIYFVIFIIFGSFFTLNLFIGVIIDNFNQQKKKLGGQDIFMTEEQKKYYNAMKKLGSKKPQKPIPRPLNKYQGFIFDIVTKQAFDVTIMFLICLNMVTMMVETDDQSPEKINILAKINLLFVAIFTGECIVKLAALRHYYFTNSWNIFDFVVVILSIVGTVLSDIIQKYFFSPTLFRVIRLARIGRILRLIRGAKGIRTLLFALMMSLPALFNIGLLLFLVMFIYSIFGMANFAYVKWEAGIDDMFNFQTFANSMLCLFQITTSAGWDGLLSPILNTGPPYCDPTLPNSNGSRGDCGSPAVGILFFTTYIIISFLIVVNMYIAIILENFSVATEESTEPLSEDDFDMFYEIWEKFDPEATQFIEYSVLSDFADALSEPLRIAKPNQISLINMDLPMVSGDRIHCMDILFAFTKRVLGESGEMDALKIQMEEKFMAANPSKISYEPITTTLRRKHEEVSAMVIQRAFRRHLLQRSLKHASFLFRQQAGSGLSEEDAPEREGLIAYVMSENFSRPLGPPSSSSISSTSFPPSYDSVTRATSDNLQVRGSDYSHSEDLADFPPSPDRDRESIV
Chain of Serotonin 5-HT7 (Human recombinant) (P34969 whole entry): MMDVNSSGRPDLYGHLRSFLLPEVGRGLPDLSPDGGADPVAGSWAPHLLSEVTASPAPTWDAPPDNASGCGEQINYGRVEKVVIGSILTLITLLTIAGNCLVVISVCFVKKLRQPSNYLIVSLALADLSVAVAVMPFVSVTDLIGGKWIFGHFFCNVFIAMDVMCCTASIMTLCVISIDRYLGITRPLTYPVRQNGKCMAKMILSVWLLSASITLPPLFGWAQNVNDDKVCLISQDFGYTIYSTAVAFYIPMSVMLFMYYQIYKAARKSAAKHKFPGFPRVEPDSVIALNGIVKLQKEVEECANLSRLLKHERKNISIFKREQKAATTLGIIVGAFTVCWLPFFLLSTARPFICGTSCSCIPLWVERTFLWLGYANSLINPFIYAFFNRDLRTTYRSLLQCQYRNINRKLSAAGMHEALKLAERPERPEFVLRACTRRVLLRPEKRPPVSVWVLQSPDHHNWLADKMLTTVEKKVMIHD
Chain of Serotonin 5-HT2B (Human recombinant) (P41595 whole entry): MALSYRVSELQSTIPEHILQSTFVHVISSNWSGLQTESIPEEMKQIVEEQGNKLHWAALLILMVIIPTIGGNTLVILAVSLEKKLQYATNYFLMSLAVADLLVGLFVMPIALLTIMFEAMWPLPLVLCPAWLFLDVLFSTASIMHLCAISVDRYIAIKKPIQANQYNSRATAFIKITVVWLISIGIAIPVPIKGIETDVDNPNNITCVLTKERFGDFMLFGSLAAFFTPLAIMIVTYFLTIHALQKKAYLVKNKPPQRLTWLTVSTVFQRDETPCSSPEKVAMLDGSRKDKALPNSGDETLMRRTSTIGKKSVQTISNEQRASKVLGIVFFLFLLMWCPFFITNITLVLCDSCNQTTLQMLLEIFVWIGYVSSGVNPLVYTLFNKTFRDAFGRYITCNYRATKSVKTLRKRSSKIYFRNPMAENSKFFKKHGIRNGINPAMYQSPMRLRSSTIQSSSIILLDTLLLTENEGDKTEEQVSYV

Consider `Br.CCCN(CCC)C1CCc2cccc(O)c2C1` (centres unmarked) [Compound 8-OH-DPAT, 7-(Dipropylamino)-5,6,7,8-tetrahydronaphthalen-1-ol hydrobromide], for which the “active dose in forced swim test published previously” value in assay [1] (male CD-COBS rats, Cervo & Samanin (1987)) was 0.25 to 0.5 mg/kg; in assay [1] (male Sprague-Dawley rats, Singh & Lucki (1993)), 0.5 mg/kg; in [2], 0.25 to 1 mg/kg. The “dose reducing immobility duration in the FST” value in assay [3] is 3 mg/kg.

On to `CNCCC(Oc1ccc(C(F)(F)F)cc1)c1ccccc1` (centres unmarked) [fluoxetine], for which, in assay [4], the “ED50, blockade of S-IRA (comparison value)” value is on record as 22.2 mg/kg.

For the compound `CC(N)Cc1cccc(C(F)(F)F)c1` (single isomer, unassigned; (-)) [(−)norfenfluramine], the “antagonist activity at the muscarinic M1 receptor” value in assay [5] is “some antagonist activity”. Besides, the inhibitory constant (Ki) was 409 nM in assay [6] (setting [21]) and 1200 nM in assay [9]. Moreover, in assay [7], the “effect on twitch contraction amplitude” value is “more complex behavior”. Further, the “antagonist activity at the beta-2 adrenergic receptor” value in [8] is “antagonist activity”.

Consider `CCN[C@@H](C)Cc1cccc(C(F)(F)F)c1` [(+)fenfluramine], for which the “antagonist activity at the beta-2 adrenergic receptor” value in assay [8] is listed as “antagonist activity”.

Regarding `CC(N)Cc1cccc(C(F)(F)F)c1` (centres unmarked) [norfenfluramine], the “binding relative to positive controls” value in [10] (Example 2, seven concentrations, β-1 adrenergic) is recorded as “moderate binding”; in assay [11] (setting [23]) it was “moderate binding”; in [6] (setting [23]) it was “moderate binding”; in assay [12] (setting [23]) it was “moderate binding”; in assay [13] (setting [23]), “moderate binding”; in assay [16] (setting [23]), “moderate binding”. Besides, the “inhibition of receptor binding (tracer)” value is listed as “significantly inhibit” in assay [10] (setting [22]); “significantly inhibit” in assay [11] (setting [22]); “significantly inhibit” in [6] (setting [24]); “significantly inhibit” in assay [12] (setting [24]); “significantly inhibit” in [13] (test article 1×10^−6 and 1×10^−5 mol/L, guinea pig brain); “significantly inhibit” in assay [16] (test article 1×10^−6 and 1×10^−5 mol/L, human recombinant). The “effect on twitch contraction amplitude” value in assay [7] (listed as Racemic norfenfluramine) is on record as “concentration-dependent decrease”. Further, the “antagonist activity at the beta-2 adrenergic receptor” value in [8] is “some antagonist activity”. In assay [14], the “effect on the (+)SKF-10,047-induced increase in twitch contraction amplitude” value is “concentration-dependent inhibition”. Besides, the “activity at the Nav1.5 ion channel” value in assay [15] (patch clamp, 0.37-30 μM) is recorded as “weak antagonist”.

As to `Cl.O=C(OCCN1CCOCC1)C1(c2ccccc2)CCCCC1` [PRE-084, 2-(4-Morpholinethyl)-1-phenylcyclohexanecarboxylate hydrochloride], the “dose attenuating dizocilpine-induced deficit in spontaneous alternation” value in assay [17] worked out at 0.3 mg/kg. The “dose attenuating dizocilpine-induced deficit in passive avoidance response (minimal active dose)” value in assay [18] amounted to 0.3 mg/kg.

Consider `CCN[C@@H](C)Cc1cccc(C(F)(F)F)c1` [Dexfenfluramine], for which the half-maximal inhibitory concentration (IC50) is 1290 nM in assay [6], 7.52 µM in assay [19], > 30 µM in [15] and 125 nM in assay [20]. The values for the Ki in assay [6], in assay [19] and in [20] were 711 nM, 7.1 µM and 109 nM, respectively.

Consider `CC(N)Cc1cccc(C(F)(F)F)c1` (single isomer, unassigned; (+)) [(+)norfenfluramine], for which the Ki in assay [6] (setting [21]) worked out at 1140 nM; in assay [9] it was 242 nM. Moreover, in assay [7], the “effect on twitch contraction amplitude” value was “concentration-dependent decrease”.

Regarding `C[C@@H]1CN(CCCn2c3ccccc3c3ccccc32)C[C@H](C)N1` [rimcazole], in [14], the “effect on the (+)SKF-10,047-induced increase in twitch contraction amplitude” value is “inhibited”.

`CC[C@@](C/C=C/c1ccccc1)(c1ccccc1)N(C)CC1CC1.Cl` [Igmesine, (R)-(+)-N-Cyclopropylmethyl-α-ethyl-N-methyl-α-[(2E)-3-phenyl-2-propenyl)benzenemethanamine hydrochloride]: the “dose reducing immobility duration in the FST” value in assay [3] turned out to be 30 mg/kg.
